# From ChEMBL document CHEMBL1150138, “The isolation of two new chromone derivatives from the New Zealand fungus Tolypocladium extinguens” (2002)
# The source made the active and inactive calls. The rule behind the calls is not given here.
# Tests used:
# Bacillus subtilis = assay: Antimicrobial activity against Bacillus subtilis by disk susceptibility test; type: functional, organism-based
# Escherichia coli = assay: Antimicrobial activity against Escherichia coli by disk susceptibility test; type: functional, organism-based
# Pseudomonas aeruginosa = assay: Antimicrobial activity against Pseudomonas aeruginosa by disk susceptibility test; type: functional, organism-based
# Candida albicans = assay: Antimicrobial activity against Candida albicans by disk susceptibility test; type: functional, organism-based
# Amorphotheca resinae = assay: Antimicrobial activity against Cladosporium resinae by disk susceptibility test; type: functional, organism-based
# [1] = tested on: Trichophyton mentagrophytes; assay: Antimicrobial activity against Trichophyton mentagrophytes by disk susceptibility test; type: functional, organism-based
# P388 = assay: Cytotoxicity against mouse P388 cells after 1 to 11 days by MTT assay; type: functional; details: read-out: ID50 (the source's name)
Structure (SMILES),Activity (Bacillus subtilis),Activity (Escherichia coli),Activity (Pseudomonas aeruginosa),Activity (Candida albicans),Activity (Amorphotheca resinae),Activity [1],IC50 (P388) [µg/mL]
COc1cc2oc(C)cc(=O)c2c(O)c1CO,inactive,inactive,inactive,inactive,inactive,inactive,
COCc1c(OC)cc2oc(C)cc(=O)c2c1O,inactive,inactive,inactive,inactive,inactive,inactive,6
COCc1c(OC)cc2oc(CO)cc(=O)c2c1O,inactive,inactive,inactive,inactive,inactive,inactive,
